Test results reported in ChEMBL document CHEMBL4177582, “Modifications of flexible nonyl chain and nucleobase head group of (+)-erythro-9-(2's-hydroxy-3's-nonyl)adenine [(+)-EHNA] as adenosine deaminase inhibitors” (Bioorg Med Chem, 2017).
pKi: −log10 of the molar value.

System: not listed separately
Experiment: Half life in mouse liver microsomes pre-incubated at 37 degC for 5 mins before NADPH addition and measured after 30 mins by LC/MS/MS method
Format: ADME, microsome
Details: not given; call rule not given here
With `CNC(=O)c1cccc(CC[C@H]([C@H](C)O)n2cnc3c(N)ncnc32)c1` the half-life was greater than 30 min.
For `C[C@H](O)[C@@H](CSc1cccc(C(F)(F)F)c1)n1cnc2c(N)ncnc21`, the half-life was 25 min.

System: not listed separately
Experiment: Drug metabolism in mouse liver microsomes assessed as drug recovery pre-incubated at 37 degC for 5 mins before NADPH addition and measured after 30 mins by LC/MS/MS method
Format: ADME, microsome
Details: read-out: Drug recovery
In the case of `CNC(=O)c1cccc(CC[C@H]([C@H](C)O)n2cnc3c(N)ncnc32)c1`, the remaining at 0.5 h was 100%.
`C[C@H](O)[C@@H](CSc1cccc(C(F)(F)F)c1)n1cnc2c(N)ncnc21` gave a remaining at 0.5 h of 43%.

System: not listed separately
Experiment: Half life in rat liver microsomes pre-incubated at 37 degC for 5 mins before NADPH addition and measured after 30 mins by LC/MS/MS method
Format: ADME, microsome
Details: not given
`CNC(=O)c1cccc(CC[C@H]([C@H](C)O)n2cnc3c(N)ncnc32)c1` showed a half-life greater than 30 min.
`C[C@H](O)[C@@H](CSc1cccc(C(F)(F)F)c1)n1cnc2c(N)ncnc21` showed a half-life greater than 100 min.

System: not listed separately
Experiment: Drug metabolism in rat liver microsomes assessed as drug recovery pre-incubated at 37 degC for 5 mins before NADPH addition and measured after 30 mins by LC/MS/MS method
Format: ADME, microsome
Details: read-out: Drug recovery
In the case of `CNC(=O)c1cccc(CC[C@H]([C@H](C)O)n2cnc3c(N)ncnc32)c1`, the remaining at 0.5 h was 91%.
`C[C@H](O)[C@@H](CSc1cccc(C(F)(F)F)c1)n1cnc2c(N)ncnc21` gave a remaining at 0.5 h of 83%.

Target: T1, Adenosine deaminase (Bos taurus, UniProt P56658)
T1 sequence (P56658 whole entry): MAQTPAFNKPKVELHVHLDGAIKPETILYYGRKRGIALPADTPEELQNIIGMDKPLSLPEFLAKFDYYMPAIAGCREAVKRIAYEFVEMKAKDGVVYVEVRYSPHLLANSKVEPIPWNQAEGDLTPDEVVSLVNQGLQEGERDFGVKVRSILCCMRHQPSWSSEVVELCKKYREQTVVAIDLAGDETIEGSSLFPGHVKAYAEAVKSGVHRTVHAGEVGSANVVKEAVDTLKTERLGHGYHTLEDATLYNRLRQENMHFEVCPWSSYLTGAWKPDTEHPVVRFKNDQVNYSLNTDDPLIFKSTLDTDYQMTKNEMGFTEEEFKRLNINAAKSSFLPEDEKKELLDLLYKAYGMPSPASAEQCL
Experiment: Inhibition of bovine adenosine deaminase pre-incubated for 5 mins before adenosine addition
Details: not given
In the case of `C[C@H](O)[C@@H](CCc1ccc(C(F)(F)F)cc1)n1ccc2c(N)ncnc21`, the Ki was “Not Active”.
For `C[C@H](O)[C@@H](CCc1cccc(C(F)(F)F)c1)n1ccc2c(N)ncnc21`, the Ki was “Not Active”.
In the case of `C[C@H](O)[C@@H](CCc1ccc(C(F)(F)F)cc1)n1ncc2c(N)ncnc21`, the Ki was “Not Active”.
In the case of `CC(=O)[C@@H](CCc1ccc(C(F)(F)F)cc1)n1cnc2c(N)ncnc21`, the Ki was “Not Active”.
In the case of `C[C@H](O)[C@@H](CCc1cccc(C(F)(F)F)c1)n1ncc2c(N)ncnc21`, the Ki was “Not Active”.

Same assay, conditions: read-out: Ki
`CNC(=O)c1cccc(CC[C@H]([C@H](C)O)n2cnc3c(N)ncnc32)c1` showed a pKi of 8.57.
`C[C@H](O)[C@@H](CSc1cccc(C(F)(F)F)c1)n1cnc2c(N)ncnc21` showed a pKi of 7.60.

System: not listed separately
Experiment: Drug metabolism in rat liver microsomes assessed as metabolic turnover rate per 0.125 mg/ml protein pre-incubated at 37 degC for 5 mins before NADPH addition and measured after 30 mins by LC/MS/MS method
Format: ADME, microsome
Details: 0.5 h
Work on `CNC(=O)c1cccc(CC[C@H]([C@H](C)O)n2cnc3c(N)ncnc32)c1` yielded a Drug metabolism of less than 0.04 nmol/min/mg.
Compound `C[C@H](O)[C@@H](CSc1cccc(C(F)(F)F)c1)n1cnc2c(N)ncnc21` has a Drug metabolism of 0.05 nmol/min/mg.

System: not listed separately
Experiment: Drug metabolism in human liver microsomes assessed as metabolic turnover rate per 0.125 mg/ml protein pre-incubated at 37 degC for 5 mins before NADPH addition and measured after 30 mins by LC/MS/MS method
Format: ADME, microsome
Details: 0.5 h
In the case of `CNC(=O)c1cccc(CC[C@H]([C@H](C)O)n2cnc3c(N)ncnc32)c1`, the Drug metabolism was less than 0.04 nmol/min/mg.
`C[C@H](O)[C@@H](CSc1cccc(C(F)(F)F)c1)n1cnc2c(N)ncnc21` showed a Drug metabolism of 0.05 nmol/min/mg.

System: not listed separately
Experiment: Half life in human liver microsomes pre-incubated at 37 degC for 5 mins before NADPH addition and measured after 30 mins by LC/MS/MS method
Format: ADME, microsome
Details: not given
Compound `CNC(=O)c1cccc(CC[C@H]([C@H](C)O)n2cnc3c(N)ncnc32)c1` has a half-life greater than 30 min.
For `C[C@H](O)[C@@H](CSc1cccc(C(F)(F)F)c1)n1cnc2c(N)ncnc21`, the half-life was greater than 100 min.

System: not listed separately
Experiment: Drug metabolism in human liver microsomes assessed as drug recovery pre-incubated at 37 degC for 5 mins before NADPH addition and measured after 30 mins by LC/MS/MS method
Format: ADME, microsome
Details: read-out: Drug recovery
Compound `CNC(=O)c1cccc(CC[C@H]([C@H](C)O)n2cnc3c(N)ncnc32)c1` has a remaining at 0.5 h of 90%.
In the case of `C[C@H](O)[C@@H](CSc1cccc(C(F)(F)F)c1)n1cnc2c(N)ncnc21`, the remaining at 0.5 h was 83%.

System: not listed separately
Experiment: Drug metabolism in mouse liver microsomes assessed as metabolic turnover rate per 0.125 mg/ml protein pre-incubated at 37 degC for 5 mins before NADPH addition and measured after 30 mins by LC/MS/MS method
Format: ADME, microsome
Details: 0.5 h
With `CNC(=O)c1cccc(CC[C@H]([C@H](C)O)n2cnc3c(N)ncnc32)c1` the Drug metabolism was less than 0.04 nmol/min/mg.
With `C[C@H](O)[C@@H](CSc1cccc(C(F)(F)F)c1)n1cnc2c(N)ncnc21` the Drug metabolism was 0.22 nmol/min/mg.

System: not listed separately
Experiment: Drug metabolism in human liver microsomes assessed as drug recovery pre-incubated at 37 degC for 5 mins measured after 30 mins in absence of NADPH by LC/MS/MS method
Format: ADME, microsome
Details: read-out: Drug recovery
`CNC(=O)c1cccc(CC[C@H]([C@H](C)O)n2cnc3c(N)ncnc32)c1` gave a remaining at 0.5 h of 92%.
`C[C@H](O)[C@@H](CSc1cccc(C(F)(F)F)c1)n1cnc2c(N)ncnc21` showed a remaining at 0.5 h of 89%.

System: not listed separately
Experiment: Drug metabolism in mouse liver microsomes assessed as drug recovery pre-incubated at 37 degC for 5 mins measured after 30 mins in absence of NADPH by LC/MS/MS method
Format: ADME, microsome
Details: read-out: Drug recovery
`CNC(=O)c1cccc(CC[C@H]([C@H](C)O)n2cnc3c(N)ncnc32)c1` gave a remaining at 0.5 h of 96%.
Work on `C[C@H](O)[C@@H](CSc1cccc(C(F)(F)F)c1)n1cnc2c(N)ncnc21` yielded a remaining at 0.5 h of 100%.

System: not listed separately
Experiment: Drug metabolism in rat liver microsomes assessed as drug recovery pre-incubated at 37 degC for 5 mins measured after 30 mins in absence of NADPH by LC/MS/MS method
Format: ADME, microsome
Details: read-out: Drug recovery
Work on `CNC(=O)c1cccc(CC[C@H]([C@H](C)O)n2cnc3c(N)ncnc32)c1` yielded a remaining at 0.5 h of 100%.
With `C[C@H](O)[C@@H](CSc1cccc(C(F)(F)F)c1)n1cnc2c(N)ncnc21` the remaining at 0.5 h was 100%.
